Assay results reported in ChEMBL document CHEMBL1201862, “PubChem BioAssay data set” (2004).
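48-hour exposure; five concentrations; linearly interpolated endpoints. At the GI50, growth is halved.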 The source made the active and inactive calls. Cut-off read from the data, not from the text of the source: active = GI50 up to about 1.1 µM and inactive = higher.

Legend:
Assay in all cases: growth of human tumour cells (NCI), 48 h
LXFL 529 = system: LXFL 529
LOX IMVI = system: LOX IMVI
SF-539 = system: SF-539
SK-MEL-5 = system: SK-MEL-5
SR = system: SR
ACHN = system: ACHN
NCI-H23 = system: NCI-H23
OVCAR-4 = system: OVCAR-4
NCI-H522 = system: NCI-H522
EKVX = system: EKVX
SK-OV-3 = system: SK-OV-3
SNB-75 = system: SNB-75
OVCAR-3 = system: OVCAR-3
A498 = system: A498
KM-20L2 = system: KM-20L2
NCI-H226 = system: NCI-H226
HOP-62 = system: HOP-62
UACC-62 = system: UACC-62
HL-60 = system: HL-60
NCI-H460 = system: NCI-H460
SF-295 = system: SF-295
HOP-18 = system: HOP-18
M19-MEL = system: M19-MEL
RXF 393 = system: RXF 393
DMS-114 = system: DMS-114
HCC 2998 = system: HCC 2998
KM12 = system: KM12
SNB-78 = system: SNB-78
786-0 = system: 786-0
HOP-92 = system: HOP-92
CCRF-CEM = system: CCRF-CEM
TK-10 = system: TK-10
HT-29 = system: HT-29
K562 = system: K562
UO-31 = system: UO-31
HCT-116 = system: HCT-116
SNB-19 = system: SNB-19
SK-MEL-28 = system: SK-MEL-28
A549 = system: A549
OVCAR-8 = system: OVCAR-8
MOLT-4 = system: MOLT-4
SW-620 = system: SW-620
COLO 205 = system: COLO 205
UACC-257 = system: UACC-257
SN12C = system: SN12C
CAKI-1 = system: CAKI-1
M14 = system: M14
SF-268 = system: SF-268
Malme-3M = system: Malme-3M
U-251 = system: U-251
IGROV-1 = system: IGROV-1
DLD-1 = system: DLD-1
XF498 = system: XF498
HCT-15 = system: HCT-15
SK-MEL-2 = system: SK-MEL-2
RPMI-8226 = system: RPMI-8226
RXF 631 = system: RXF 631
DMS-273 = system: DMS-273
OVCAR-5 = system: OVCAR-5

Measured: GI50

Cc1c(C(=N)N)oc2ccccc12
inactive: LXFL 529 > 100 µM | LOX IMVI > 100 µM | SF-539 > 100 µM | SK-MEL-5 > 100 µM | SR > 100 µM | ACHN > 100 µM | NCI-H23 > 100 µM | OVCAR-4 > 100 µM | NCI-H522 > 100 µM | EKVX > 100 µM | SK-OV-3 > 100 µM | SNB-75 79.6 µM | OVCAR-3 > 100 µM | A498 > 100 µM | KM-20L2 > 100 µM | NCI-H226 > 100 µM | HOP-62 > 100 µM | UACC-62 > 100 µM | HL-60 > 100 µM | NCI-H460 > 100 µM | SF-295 > 100 µM | HOP-18 > 100 µM | M19-MEL > 100 µM | RXF 393 > 100 µM | DMS-114 > 100 µM | HCC 2998 > 100 µM | KM12 > 100 µM | SNB-78 > 100 µM | 786-0 > 100 µM | HOP-92 > 100 µM | CCRF-CEM > 100 µM | TK-10 > 100 µM | HT-29 > 100 µM | K562 > 100 µM | UO-31 > 100 µM | HCT-116 > 100 µM | SNB-19 > 100 µM | SK-MEL-28 > 100 µM | A549 > 100 µM | OVCAR-8 > 100 µM | MOLT-4 > 100 µM | SW-620 > 100 µM | COLO 205 > 100 µM | UACC-257 > 100 µM | SN12C > 100 µM | CAKI-1 > 100 µM | M14 > 100 µM | SF-268 > 100 µM | Malme-3M > 100 µM | U-251 > 100 µM | IGROV-1 > 100 µM | DLD-1 > 100 µM | XF498 21.4 µM

CCOC1=C2N=C(C(CC)c3ccccc3F)N=C2C(=O)c2ccccc21 (configuration not stated)
> 100 µM: HCT-15
inactive: LXFL 529 > 100 µM | SF-539 > 100 µM | SR > 100 µM | ACHN > 100 µM | SK-MEL-2 > 100 µM | NCI-H23 > 100 µM | OVCAR-4 > 100 µM | NCI-H522 > 100 µM | EKVX > 100 µM | RPMI-8226 > 100 µM | SNB-75 25.4 µM | RXF 631 > 100 µM | OVCAR-3 > 100 µM | KM-20L2 > 100 µM | NCI-H226 > 100 µM | HOP-62 > 100 µM | UACC-62 > 100 µM | HL-60 > 100 µM | NCI-H460 > 100 µM | SF-295 > 100 µM | M19-MEL > 100 µM | RXF 393 2.98 µM | DMS-114 > 100 µM | HCC 2998 > 100 µM | KM12 > 100 µM | DMS-273 > 100 µM | 786-0 > 100 µM | HOP-92 95.7 µM | CCRF-CEM > 100 µM | TK-10 3.27 µM | HT-29 > 100 µM | K562 > 100 µM | UO-31 > 100 µM | HCT-116 > 100 µM | SNB-19 > 100 µM | SK-MEL-28 > 100 µM | A549 > 100 µM | OVCAR-8 > 100 µM | MOLT-4 24 µM | SW-620 > 100 µM | COLO 205 > 100 µM | UACC-257 > 100 µM | SN12C > 100 µM | CAKI-1 > 100 µM | M14 > 100 µM | SF-268 > 100 µM | Malme-3M > 100 µM | U-251 8.45 µM

O=C(NC1C=CCC2C(=O)N(c3ccccc3)C(=O)C12)OCc1ccccc1 (configuration not stated)
inactive: LXFL 529 > 100 µM | LOX IMVI > 100 µM | SF-539 > 100 µM | SK-MEL-5 > 100 µM | SR > 100 µM | ACHN > 100 µM | SK-MEL-2 57.7 µM | NCI-H23 > 100 µM | OVCAR-4 > 100 µM | NCI-H522 > 100 µM | EKVX > 100 µM | RPMI-8226 > 100 µM | SK-OV-3 > 100 µM | SNB-75 > 100 µM | OVCAR-3 > 100 µM | KM-20L2 > 100 µM | NCI-H226 > 100 µM | HOP-62 > 100 µM | UACC-62 > 100 µM | HL-60 > 100 µM | NCI-H460 > 100 µM | SF-295 > 100 µM | HOP-18 > 100 µM | M19-MEL > 100 µM | RXF 393 > 100 µM | HCC 2998 > 100 µM | KM12 > 100 µM | SNB-78 > 100 µM | DMS-273 > 100 µM | 786-0 > 100 µM | HOP-92 > 100 µM | CCRF-CEM > 100 µM | TK-10 > 100 µM | HT-29 > 100 µM | K562 > 100 µM | UO-31 > 100 µM | HCT-116 > 100 µM | SNB-19 > 100 µM | SK-MEL-28 > 100 µM | A549 > 100 µM | OVCAR-8 > 100 µM | MOLT-4 > 100 µM | SW-620 > 100 µM | COLO 205 > 100 µM | UACC-257 > 100 µM | SN12C > 100 µM | CAKI-1 > 100 µM | OVCAR-5 97.3 µM | M14 > 100 µM | SF-268 > 100 µM | U-251 > 100 µM | IGROV-1 > 100 µM | DLD-1 > 100 µM | XF498 > 100 µM

c1ccc2c(c1)CCCC/C2=N/OCC1CO1 (configuration not stated)
> 100 µM: HCT-15
inactive: LXFL 529 36.3 µM | LOX IMVI 32.9 µM | SF-539 > 100 µM | SK-MEL-5 35.5 µM | SR 26.4 µM | ACHN 99.1 µM | SK-MEL-2 > 100 µM | NCI-H23 41.8 µM | EKVX 56.9 µM | RPMI-8226 30.3 µM | SNB-75 54.5 µM | A498 > 100 µM | KM-20L2 > 100 µM | NCI-H226 35.3 µM | HL-60 21.4 µM | NCI-H460 80.7 µM | SF-295 58.7 µM | HOP-18 34.7 µM | RXF 393 53.6 µM | DMS-114 34.8 µM | HCC 2998 > 100 µM | KM12 35.9 µM | SNB-78 57.4 µM | DMS-273 53.1 µM | HOP-92 22.3 µM | CCRF-CEM 46.5 µM | TK-10 > 100 µM | HT-29 42.1 µM | K562 41.2 µM | HCT-116 45 µM | SK-MEL-28 61 µM | A549 56.4 µM | OVCAR-8 45.7 µM | MOLT-4 32.1 µM | SW-620 63.4 µM | COLO 205 48.8 µM | UACC-257 46.5 µM | SN12C 51.5 µM | SF-268 58.3 µM | Malme-3M 67.6 µM | U-251 72.3 µM | IGROV-1 50.8 µM | DLD-1 > 100 µM | XF498 29.4 µM
active: UO-31 < 0.01 µM
